Results from patent publication US9012497B2, “Cyclohexyl carbamate compounds as active anti-cellulite ingredients” (Symrise AG, priority 2010, dated 2015).
pEC50, pIC50: −log10 of the molar value.

Key:
3T3-L1 cells [1] = experiment: Adipogenesis assay (in vitro), Nile Red lipid staining; type: cell-based; settings: Mus musculus, mean values of at least 2 independent tests, read-out: Adipogenesis inhibition IC50
Method: 3T3-L1 cells (mouse embryonic fibroblast-like adipocyte cell line) are seeded in a 48-well plate with collagen I-coating in a concentration of 3×10^4 cells/well. After 72 h cultivation at 37° C. and 5% CO2 in DMEM (Dulbecco's Modified Eagle Medium), enriched with 10% calf serum, various concentrations of the test substances in DMEM, enriched with 10% foetal calf serum and to which are added 1 μg/ml insulin, 0.25 μM dexamethasone and 0.5 mM IBMX (3-isobutyl-1-methylxanthine), are added and incubated for a further 48 h. A media change takes place, in that DMEM, enriched with 10% foetal calf serum and with 1 μg/ml insulin added, are applied. After renewed cultivation for 48 h, a further media change takes place, in which DMEM, enriched with 10% foetal calf serum, is applied.
After a further incubation for 72 h, the intracellularly stored lipids are quantified as a measure for the differentiation of the cells by measuring the fluorescence after staining of the lipids with the fluorescent dye Nile Red.
The inhibition of the adipogenesis in the presence of the test substances is calculated according to the following equation:
[formula] wherein RFU test substance=relative fluorescent units of the wells with test substance and with cells RFU control=relative fluorescent units of the wells without test substance, but with cells RFU control without cells=relative fluorescent units of the wells without test substance and without cells The IC50 is calculated from the adipogenesis inhibition [%] in a series of dilutions of tested samples. This is the concentration at which the adipogenesis is 50% inhibited.

3T3-L1 cells [2] = experiment: Lipolysis assay, in vitro on 3T3-L1 cells, free glycerol release; type: cell-based; settings: Mus musculus; differentiated 3T3-L1 cells, about 20 hours of incubation; mean values from at least 2 independent tests; read-out: Stimulation of lipolysis EC50
Method: 3T3-L1 cells (mouse embryonic fibroblast-like adipocyte cell line) are seeded in a 48-well plate with collagen I-coating in a concentration of 3×10^4 cells/well. The cultivation and differentiation of the cells takes place analogously to the details in Example 2 (adipogenesis assay).
Various concentrations of the test substances are applied to the cells in DMEM, with bovine serum albumen added. After about 20 hours of incubation, the quantification of free glycerol in the supernatant of the cells takes place, which is released by the cells after hydrolysis of triglycerides in the cells and is a measure of the lipolysis of the cells. The quantification of the free glycerol is carried out based on an enzymatic method with a free glycerol reagent.
The stimulation of the lipolysis in the presence of test substances is calculated according to the following equation:
[formula] wherein A test substance=absorption of the wells with test substance and with cells A test substance without cells=absorption of the wells with test substance without cells (absorption control) A control=absorption of the wells without test substance, but with cells A control without cells=absorption of the wells without test substance and without cells
The EC50 is calculated from the lipolysis stimulation [%] in a series of dilutions of tested samples. This is the concentration at which the lipolysis is 50% stimulated.

pancreatic lipase (PL) = molecular target: T1, pancreatic lipase (PL) (Sus scrofa, UniProt P00591); experiment: Inhibition of PL, MUF oleate hydrolysis; type: biochemical; settings: mean values of at least 2 independent tests
T1 construct: purchased Sigma-Aldrich
T1 sequence (P00591 1-450): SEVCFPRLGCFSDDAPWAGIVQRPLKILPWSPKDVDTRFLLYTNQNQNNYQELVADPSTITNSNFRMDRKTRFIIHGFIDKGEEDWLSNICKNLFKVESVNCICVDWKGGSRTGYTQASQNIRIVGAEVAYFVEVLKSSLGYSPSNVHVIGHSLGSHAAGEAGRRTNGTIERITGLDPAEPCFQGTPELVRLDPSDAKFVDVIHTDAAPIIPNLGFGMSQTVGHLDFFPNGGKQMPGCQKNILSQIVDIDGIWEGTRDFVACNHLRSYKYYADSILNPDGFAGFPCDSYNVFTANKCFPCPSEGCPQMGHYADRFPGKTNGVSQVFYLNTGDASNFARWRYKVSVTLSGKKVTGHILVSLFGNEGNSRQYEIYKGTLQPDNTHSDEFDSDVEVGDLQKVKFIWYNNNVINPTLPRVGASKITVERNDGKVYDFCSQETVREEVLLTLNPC
Description: Lipogenesis is perceived as the storage of triglycerides in adipocytes. The inhibition of this storage can take place by means of the inhibition of the activity of extracellular lipoprotein lipase (LPL) in that the hydrolysis of extracellular triglycerides and therefore the absorption of free fatty acids by adipocytes are reduced. As a preliminary test, the inhibition of pancreatic lipase (PL) is investigated.
PL (Sigma-Aldrich), in the presence of test substances in different use concentrations has methylumbelliferyl oleate (MUF oleate) added as a substrate. Fluorescent methylumelliferon (MUF), is produced by hydrolysis of the MUF oleate by PL and is quantified. The inhibition of the hydrolysis of the MUF oleate is a measure of the inhibition of activity of the PL.
[formula] wherein MUF test substance=MUF concentration of the wells with test substance and with PL MUF control=MUF concentration of the wells without test substance, but with PL MUF control without PL=MUF concentration of the wells without test substance and without PL
The IC50 is calculated from the inhibition of the PL [%] in a series of dilutions of tested samples. This is the concentration, at which the activity of the PL is 50% inhibited.

## CCCCNC(=O)OC1CCCCC1C(C)C (stereo not drawn) [BIO1841, Butyl-carbamic acid 2-isopropyl-cyclohexyl ester]
3T3-L1 cells [1]
  pIC50: 4.23
3T3-L1 cells [2]
  pEC50: 3.64
Pancreatic lipase (PL)
  pIC50: 3.11

## CCCCNC(=O)OC1C(C)CCC(C)C1C (stereo not drawn) [BIO1617, Butyl-carbamic acid 2,3,6-trimethyl-cyclohexyl ester]
3T3-L1 cells [1]
  pIC50: 4.10
3T3-L1 cells [2]
  pEC50: 3.01
Pancreatic lipase (PL)
  pIC50: 2.86

## CCC(C)NC(=O)OC1CCCC(C)C1C (stereo not drawn) [BIO1845, sec-Butyl-carbamic acid 2,3-dimethyl-cyclohexyl ester]
3T3-L1 cells [1]
  pIC50: 4.02
3T3-L1 cells [2]
  pEC50: 3.72
Pancreatic lipase (PL)
  pIC50: 3.14
